Molecular target: DGKα (Homo sapiens (Human), UniProt P23743)
Experiment: Human DGKα kinase activity inhibition assay (ADP-Glo)
Assay type: biochemical
Conditions: recombinant full-length human DGKα, 55 μM ATP, 7 μM 1,2-dioleoyl-sn-glycerol, read-out: IC50 values of examples in in vitro human DGKa kinase activity inhibition assays
Protocol: Human DGKα Kinase Activity Inhibition Assay
Human DGKα inhibitory activity of compounds of the present invention was quantified employing the human DGKα kinase activity assay as described in the following paragraphs. In essence, the enzyme activity was measured by quantification of the adenosine-di-phosphate (ADP) generated as a co-product of the enzyme reaction via the “ADP-Glo™ Kinase Assay” kit from the company Promega. This detection system works as follows: In a first step the ATP not consumed in the kinase reaction is quantitatively converted to cAMP employing an adenylate cyclase (“ADP-Glo-reagent”), then the adenylate cyclase is stopped and the ADP generated in the kinase reaction converted to ATP, which subsequently generates in a luciferase-based reaction a glow-luminescence signal (“Kinase Detection Reagent”).
C-terminally FLAG-tagged, recombinant full-length human DGKα (expressed in baculovirus infected insect cells, purified using anti-Flag pulldown and size exclusion chromatography as described below, DGKa_hu_1) was used as enzyme. As substrate for the kinase 1,2-dioleoyl-sn-glycerol, reconstituted in octyl-β-D-glucopyranoside micelles, was used. […] Then 35 volumes of 50 mM MOPS buffer (pH 7.4) were added to yield a solution of 0.28 mM 1,2 dioleoyl-sn-glycerol and 200 mM […], which was aliquoted, flash-frozen in liquid nitrogen, and stored at −20° C. until use.
For the assay 50 nl of a 100-fold concentrated solution of the test compound in dimethyl sulfoxide (DMSO, Sigma) was pipetted into either a white 1536-well or a white low-volume 384-well microtiter plate (both Greiner Bio-One, Frickenhausen, Germany).

Sequence of DGKα (P23743 other isoform, or with tags, fused parts or gaps): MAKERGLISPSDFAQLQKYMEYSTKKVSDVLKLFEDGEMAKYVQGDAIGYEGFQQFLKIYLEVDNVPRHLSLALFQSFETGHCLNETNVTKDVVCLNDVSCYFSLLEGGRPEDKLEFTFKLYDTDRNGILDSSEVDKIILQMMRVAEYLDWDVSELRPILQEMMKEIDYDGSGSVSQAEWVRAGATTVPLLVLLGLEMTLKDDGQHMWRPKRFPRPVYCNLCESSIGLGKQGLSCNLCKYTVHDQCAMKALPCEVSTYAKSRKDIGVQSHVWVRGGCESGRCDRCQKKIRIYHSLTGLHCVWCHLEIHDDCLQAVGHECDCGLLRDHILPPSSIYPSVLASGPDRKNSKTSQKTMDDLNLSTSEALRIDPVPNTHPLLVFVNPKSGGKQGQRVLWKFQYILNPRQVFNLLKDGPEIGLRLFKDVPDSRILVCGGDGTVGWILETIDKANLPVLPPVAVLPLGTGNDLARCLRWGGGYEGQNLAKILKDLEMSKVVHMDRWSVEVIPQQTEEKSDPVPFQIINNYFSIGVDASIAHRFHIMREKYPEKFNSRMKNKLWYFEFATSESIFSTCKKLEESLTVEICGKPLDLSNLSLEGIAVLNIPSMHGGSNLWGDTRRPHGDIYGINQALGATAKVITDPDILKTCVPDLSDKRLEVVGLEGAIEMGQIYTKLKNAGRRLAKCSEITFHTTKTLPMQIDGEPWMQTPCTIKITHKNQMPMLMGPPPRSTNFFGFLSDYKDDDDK

SMILES | IC50 [nM]
Cn1c(=O)c(C#N)c(N2CCC(c3nc4cc(C(F)(F)F)ccc4s3)CC2)c2ccccc21 [Example 23, 1-methyl-2-oxo-4-{4-[5-(trifluoromethyl)-1,3-benzothiazol-2-yl]piperidin-1-yl}-1,2-dihydroquinoline-3-carbonitrile] | 12
CNC(=O)c1c(N2CCC(c3nc4ccccc4s3)CC2)c2ccccc2n(C)c1=O [Example 145, 4-[4-(1,3-benzothiazol-2-yl)piperidin-1-yl]-N,1-dimethyl-2-oxo-1,2-dihydroquinoline-3-carboxamide] | 41
Cc1ccc2oc(C3CCN(c4c(C#N)c(=O)n(C)c5ccc(C6CCC6)cc45)CC3)nc2c1 [Example 409, 6-cyclobutyl-1-methyl-4-[4-(5-methyl-1,3-benzoxazol-2-yl)piperidin-1-yl]-2-oxo-1,2-dihydroquinoline-3-carbonitrile] | 8.4
Cc1ccc2oc(C3CCN(c4c(C(N)=O)c(=O)n(C)c5cc([N+](=O)[O-])c(C)cc45)CC3)nc2c1 [Example 510, 1,6-dimethyl-4-[4-(5-methyl-1,3-benzoxazol-2-yl)piperidin-1-yl]-7-nitro-2-oxo-1,2-dihydroquinoline-3-carboxamide] | 70
Cn1c(=O)c(C#N)c(N2CCC(C)(c3ccccc3)CC2)c2ccccc21 [Example 58, 1-methyl-4-(4-methyl-4-phenylpipehdin-1-yl)-2-oxo-1,2-dihydroquinoline-3-carbonitrile] | 2.6
CCC1(c2nc3ccccc3o2)CCN(c2c(C#N)c(=O)n(C)c3cc(Br)ccc23)CC1 [Example 223, 4-[4-(1,3-benzoxazol-2-yl)-4-ethylpiperidin-1-yl]-7-bromo-1-methyl-2-oxo-1,2-dihydroquinoline-3-carbonitrile] | 1.2
Cn1c(=O)c(C#N)c(N2CCC(c3nc4ccc(Cl)cc4o3)CC2)c2ccc(Br)cc21 [Example 32, 7-bromo-4-[4-(6-chloro-1,3-benzoxazol-2-yl)piperidin-1-yl]-1-methyl-2-oxo-1,2-dihydroquinoline-3-carbonitrile] | 6
Cn1c(=O)c(C#N)c(N2CCC(O)(c3cccc(C(F)(F)F)c3)CC2)c2ccccc21 [Example 152, 4-{4-hydroxy-4-[3-(trifluoromethyl)phenyl]piperidin-1-yl}-1-methyl-2-oxo-1,2-dihydroquinoline-3-carbonitrile] | 1070
Cc1ccc2oc(C3CCN(c4c(C#N)c(=O)n(C)c5ccc(P(C)(C)=O)cc45)CC3)nc2c1 [Example 338, 6-(dimethylphosphoryl)-1-methyl-4-[4-(5-methyl-1,3-benzoxazol-2-yl)piperidin-1-yl]-2-oxo-1,2-dihydroquinoline-3-carbonitrile] | 86
Cc1ccc2oc(C3CCN(c4c(C#N)c(=O)n(C)c5cc(N(C)CCO)ccc45)CC3)nc2c1 [Example 399, 7-[(2-hydroxyethyl)(methyl)amino]-1-methyl-4-[4-(5-methyl-1,3-benzoxazol-2-yl)piperidin-1-yl]-2-oxo-1,2-dihydroquinoline-3-carbonitrile] | 0.5
Cc1cccc(-c2noc(C3CCN(c4c(C(N)=O)c(=O)n(C)c5ccccc45)CC3)n2)c1 [Example 460, 1-methyl-4-{4-[3-(3-methylphenyl)-1,2,4-oxadiazol-5-yl]piperidin-1-yl}-2-oxo-1,2-dihydroquinoline-3-carboxamide] | 3.5
Cc1ccccc1C1CCN(c2c(C#N)c(=O)n(C)c3ccccc23)CC1 [Example 82, 1-methyl-4-[4-(2-methylphenyl)piperidin-1-yl]-2-oxo-1,2-dihydroquinoline-3-carbonitrile] | 11
CC[C@H](C)c1ccc2c(N3CCC(C)(c4nc5cc(C)ccc5o4)CC3)c(C#N)c(=O)n(C)c2c1 [Example 266, 7-[(2S)-butan-2-yl]-1-methyl-4-[4-methyl-4-(5-methyl-1,3-benzoxazol-2-yl)piperidin-1-yl]-2-oxo-1,2-dihydroquinoline-3-carbonitrile] | 53
Cc1ccc2c(c1)c(N1CCC(c3nc4ccc(Cl)cc4o3)CC1)c(C(N)=O)c(=O)n2C [Example 202, 4-[4-(6-chloro-1,3-benzoxazol-2-yl)piperidin-1-yl]-1,6-dimethyl-2-oxo-1,2-dihydroquinoline-3-carboxamide] | 2.7
Cn1c(=O)c(C#N)c(N2CCC(c3cccc(Cl)c3)CC2)c2ccccc21 [Example 325, 4-[4-(3-chlorophenyl)piperidin-1-yl]-1-methyl-2-oxo-1,2-dihydroquinoline-3-carbonitrile] | 26
CCCOc1ccc2c(N3CCC(C)(c4nc5cc(C)ccc5o4)CC3)c(C#N)c(=O)n(C)c2c1 [Example 257, 1-methyl-4-[4-methyl-4-(5-methyl-1,3-benzoxazol-2-yl)piperidin-1-yl]-2-oxo-7-propoxy-1,2-dihydroquinoline-3-carbonitrile] | 26
COC1(c2nc3ccccc3o2)CCN(c2c(C(N)=O)c(=O)n(C)c3ccccc23)CC1 [Example 489, 4-[4-(1,3-benzoxazol-2-yl)-4-methoxypiperidin-1-yl]-1-methyl-2-oxo-1,2-dihydroquinoline-3-carboxamide] | 7.5
Cc1ccc2oc(C3CCN(c4c(C#N)c(=O)n(C)c5ccc(C6(C(F)(F)F)CC6)cc45)CC3)nc2c1 [Example 412, 1-methyl-4-[4-(5-methyl-1,3-benzoxazol-2-yl)piperidin-1-yl]-2-oxo-6-[1-(trifluoromethyl)cyclopropyl]-1,2-dihydroquinoline-3-carbonitrile] | 21
Cn1c(=O)c(C#N)c(N2CCC(c3nc4ccccc4o3)CC2)c2ccc(C#N)cc21 [Example 275, 4-[4-(1,3-benzoxazol-2-yl)piperidin-1-yl]-1-methyl-2-oxo-1,2-dihydroquinoline-3,7-dicarbonitrile] | 172
Cc1ccc2oc(C3(C)CCN(c4c(C(N)=O)c(=O)n(C)c5ccc(P(C)(C)=O)cc45)CC3)nc2c1 [Example 452, 6-(dimethylphosphoryl)-1-methyl-4-[4-methyl-4-(5-methyl-1,3-benzoxazol-2-yl)piperidin-1-yl]-2-oxo-1,2-dihydroquinoline-3-carboxamide] | 2570
Cn1c(=O)c(C(N)=O)c(N2CCC(c3nc4cc(OCC5CCCO5)ccc4o3)CC2)c2ccccc21 (stereo not drawn) [Example 487, 1-methyl-2-oxo-4-(4-{5-[(oxolan-2-yl)methoxy]-1,3-benzoxazol-2-yl}piperidin-1-yl)-1,2-dihydroquinoline-3-carboxamide] | 13
COCCc1cccc2oc(C3CCN(c4c(C(N)=O)c(=O)n(C)c5ccccc45)CC3)nc12 [Example 315, 4-{4-[4-(2-methoxyethyl)-1,3-benzoxazol-2-yl]piperidin-1-yl}-1-methyl-2-oxo-1,2-dihydroquinoline-3-carboxamide] | 46
Cc1ccc2oc(C3CCN(c4c(C#N)c(=O)n(C)c5ccccc45)CC3C)nc2c1 (mixture of isomers) [Example 111, 1-methyl-4-[3-methyl-4-(5-methyl-1,3-benzoxazol-2-yl)piperidin-1-yl]-2-oxo-1,2-dihydroquinoline-3-carbonitrile, mixture of stereoisomers] | 3.2
Cn1c(=O)c(C#N)c(N2CCC(c3nc4cc(F)c(F)cc4o3)CC2)c2cccc(Br)c21 [Example 160, 8-bromo-4-[4-(5,6-difluoro-1,3-benzoxazol-2-yl)piperidin-1-yl]-1-methyl-2-oxo-1,2-dihydroquinoline-3-carbonitrile] | 544
Cc1ccc2c(N3CCC(c4ccccc4)CC3)c(C#N)c(=O)n(C)c2c1 [Example 255, 1,7-dimethyl-2-oxo-4-(4-phenylpiperidin-1-yl)-1,2-dihydroquinoline-3-carbonitrile] | 18
Cn1c(=O)c(C#N)c(N2CCC(c3ccc(Br)cc3)CC2)c2ccccc21 [Example 88, 4-[4-(4-bromophenyl)piperidin-1-yl]-1-methyl-2-oxo-1,2-dihydroquinoline-3-carbonitrile] | 47
Cc1ccc2oc(C3(C)CCN(c4c(C#N)c(=O)n(C)c5cc(OC6CC6)ccc45)CC3)nc2c1 [Example 244, 7-(cyclopropyloxy)-1-methyl-4-[4-methyl-4-(5-methyl-1,3-benzoxazol-2-yl)piperidin-1-yl]-2-oxo-1,2-dihydroquinoline-3-carbonitrile] | 4.6
Cc1ccc2oc(C3(C)CCN(c4c(C#N)c(=O)n(C)c5c(C#N)cccc45)CC3)nc2c1 [Example 163, 1-methyl-4-[4-methyl-4-(5-methyl-1,3-benzoxazol-2-yl)piperidin-1-yl]-2-oxo-1,2-dihydroquinoline-3,8-dicarbonitrile] | 146
Cn1c(=O)c(C#N)c(N2CCC(c3nc4ccccc4o3)CC2)c2ccc(Cl)cc21 [Example 227, 4-[4-(1,3-benzoxazol-2-yl)piperidin-1-yl]-7-chloro-1-methyl-2-oxo-1,2-dihydroquinoline-3-carbonitrile] | 2
Cc1ccc2oc(C3CCN(c4c(C(N)=O)c(=O)n(C)c5ccccc45)CC3)nc2c1 [Example 107, 1-methyl-4-[4-(5-methyl-1,3-benzoxazol-2-yl)piperidin-1-yl]-2-oxo-1,2-dihydroquinoline-3-carboxamide] | 2.3

From US11998539B2, “Substituted aminoquinolones as DGKalpha inhibitors for immune activation” (Bayer Aktiengesellschaft, priority 2019, dated 2024)
